Consider three compounds from article PMC3479967 (Evidence-based Complementary and Alternative Medicine : eCAM, 2012).

As usually defined, the IC50 is the concentration at which inhibition is half-maximal. What is called Ki is the dissociation constant of the complex between target and ligand, obtained from inhibition or displacement.

One data set deals with T1, UGT1A3 (Homo sapiens, UniProt P35503).
T1 sequence (P35503 29-534): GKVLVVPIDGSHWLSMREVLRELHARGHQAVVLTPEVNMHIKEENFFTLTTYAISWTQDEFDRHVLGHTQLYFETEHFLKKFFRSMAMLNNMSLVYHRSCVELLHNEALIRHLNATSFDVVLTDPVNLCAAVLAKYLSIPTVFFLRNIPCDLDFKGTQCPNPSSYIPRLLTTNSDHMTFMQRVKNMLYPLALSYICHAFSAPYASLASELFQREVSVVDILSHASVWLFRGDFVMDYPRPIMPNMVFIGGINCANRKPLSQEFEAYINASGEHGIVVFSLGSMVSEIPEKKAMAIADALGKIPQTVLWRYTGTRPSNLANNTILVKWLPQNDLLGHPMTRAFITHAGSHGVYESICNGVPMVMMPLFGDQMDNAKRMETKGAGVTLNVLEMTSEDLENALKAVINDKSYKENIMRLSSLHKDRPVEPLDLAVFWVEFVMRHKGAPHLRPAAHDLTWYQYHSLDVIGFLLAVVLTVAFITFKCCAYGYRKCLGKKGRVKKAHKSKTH
The data set is described as follows: Inhibition of recombinant UGT1A3 activity (4-MU glucuronidation). The method, then:
A panel of recombinant human UGT supersomes (UGT1A1, UGT1A3, UGT1A4, UGT1A6, UGT1A7, UGT1A8, UGT1A9, UGT1A10, UGT2B4, UGT2B7, UGT2B15, and UGT2B17) expressed in baculovirus-infected insect cells were purchased from BD Gentest Corp. (Woburn, MA, USA).
4-MU, a nonselective substrate of UGTs, was used as probe substrate for all UGTs except UGT1A4. Incubations with each individual enzyme were conducted using conditions previously described. There was a 5 min preincubation step at 37°C before the reaction was started by addition of UDPGA. The incubation mixtures were then centrifuged at 20,500 ×g for 15 min to obtain the supernatant. Aliquots (20 μL) were then analyzed by HPLC. The HPLC system (SHIMADZU, Kyoto, Japan) consisted of an SCL-10A system controller, two LC-10AT pumps, a SIL-10A auto injector, and a SPD-10AVP UV detector. […] The mobile phase consisted of 10 mM KH2PO4, pH 2.7 (A) and acetonitrile (B). The following gradient was applied at a flow rate of 1 mL/min: 0–4 min 80% A and 20% B, 4.1–8 min 50% A and 50% B, 8.1–12 min, 30% A and 70% B. All experiments were performed in two independent experiments in duplicate.
A typical incubation mixture contained recombinant human UGTs, 5 mM MgCl2, 5 mM UDPGA, 50 μg/mg protein alamethicin, 50 mM Tris-HCl buffer (pH 7.4), and various probe substrates of UGTs in the absence or presence of different concentrations of inhibitors. […] The final concentration of DMSO in the incubation system was 1% (v/v). […] Known UGT inhibitors were used as positive controls: diclofenac for UGT1A1, UGT1A6, UGT1A7, and UGT1A9; androsterone for UGT1A3, UGT2B7, and UGT2B15, phenylbutazone for UGT1A8 and UGT1A10, and hecogenin for UGT1A4, respectively. There is no positive control reported available for UGT2B4 and UGT2B17. The negative controls are the incubation without UDPGA. […] The final concentration of DMSO in the incubation system was 1% (v/v). […] There was a 5 min preincubation step at 37°C before the reaction was started by the addition of UDPGA. Incubation times were 120 min for UGT1A1, UGT1A10, UGT2B4, UGT2B15, and UGT2B17, 75 min for UGT1A3, and 30 min for UGT1A4, UGT1A6, UGT1A7, UGT1A8, and UGT1A9. The reactions were quenched by adding 100 μL acetonitrile and internal standard. The incubation mixtures were then centrifuged at 20,500 ×g for 15 min to obtain the supernatant. An aliquot of the supernatant was used for HPLC analysis as described above. All experiments were performed in two independent experiments in duplicate.
Inhibition data from experiments were graphically represented by Dixon plots. K i values were calculated by nonlinear regression using the equations for competitive inhibition (1), noncompetitive inhibition (2), or mixed inhibition (3), [22] […] The type of inhibition was determined from the enzyme inhibition models. […]

The subject of another data set is CYPs. Also noted: method as in PMID 16476124. Conditions: previous studies; cited from earlier work.
The conditions of data set [1]: reported value, as fraction; cited from earlier work.
For data set [2] the following is noted: cited from earlier work.
On the set-up of data set [3]: method as in PMID 17632044. Conditions: after a single oral administration of Epimedium pubescens decoction; cited from earlier work.

`COc1ccc(-c2oc3c(CC=C(C)C)c(O[C@@H]4O[C@H](CO)[C@@H](O)[C@H](O)[C@H]4O)cc(O)c3c(=O)c2O[C@@H]2O[C@@H](C)[C@H](O)[C@@H](O)[C@H]2O)cc1` [Icariin]: at UGT1A3, the IC50 is 12.4 ± 0.1 µM and the Ki was 8 ± 1.4 µM. Also, the “Inhibitory effect on CYPs activities” value in the data set on CYPs is listed as “no inhibitory effects”. In addition, the Oral bioavailability in data set [1] was 0.12. Further, the “Fraction of icariin transformed into its intestinal metabolites in the intestinal lumen” value in data set [2] is given as “about 70%”.
As to `COc1ccc(-c2oc3c(CC=C(C)C)c(O[C@@H]4O[C@H](CO)[C@@H](O)[C@H](O)[C@H]4O)cc(O)c3c(=O)c2O)cc1` [Icariside I], the IC50 on UGT1A3 is over 100 µM.
Take `COc1ccc(-c2oc3c(CC=C(C)C)c(O)cc(O)c3c(=O)c2O)cc1` [Icaritin]: the concentration for half-maximal inhibition (IC50) at UGT1A3 is over 100 µM. In addition, the “Reported icaritin concentration in blood” value in data set [3] is 1.5 nM.
